Results published in patent US20240294467A1, “USP9X Inhibitors” (ProDeg, LLC, priority 2021, published 2024).
Like-named read-outs stand apart in the source and are kept apart here.

Experiments:
Mcl-1 = experiment: Western blot of Mcl-1 in U937 cells; format: cell-based
Protocol: After 24 hours treatment with Compound 7A, U937 cells were collected by centrifugation and whole cell lysates were prepared. These lysates were analyzed by Western blot to determine the level of Mcl-1. Western blot analysis was carried out as previously described (Wang et al., 2014 Journal of the American Society of Nephrology DOI: 10.1681/asn.2013060665). The band intensity for Mcl-1 in these samples were normalized to that of tubulin to correct for any inconsistencies in total protein in loading and processing the whole cell lysates.
To investigate the mechanism of action, Western blot analysis was carried out to test the induced degradation of USP9X substrate Mcl-1 by the compounds under the effects of protein synthesis inhibitor cycloheximide and/or proteasome inhibitor MG132. U937 cells were treated with 10 μM cycloheximide for one hour, with 10 μM MG132 for one hour, with the combination of 10 μM cycloheximide and 10 μM MG132 for one hour, and with vehicle (DMSO) for one hour, respectively, prior to the treatment with Compound 5A for 24 hrs. The U937 cells were harvested after treatment and whole cell lysates were prepared. These lysates were analyzed by Western blot to determine the abundance of Mcl-1 as well as that of tubulin as a normalization control. […] The band intensity of the Mcl-1 in cells treated with cycloheximide alone (Lane 2) was reduced relative to that for tubulin. […] Global blockade of protein synthesis by cycloheximide led to a significant decrease in the expression levels, especially for short lived Mcl-1. The retention of a reduced portion of Mcl-1 indicated the immunity of this portion to proteasomal degradation. […] In contrast, the band intensity of Mcl-1 relative to that of tubulin increased upon treatment of U937 cells with the proteasome inhibitor MG132 (Lane 4). […] Together, the results of this Example are consistent with the compounds acting on the proposed mechanism that intracellular inhibition of the deubiquitylase activity of USP9X blocks its ability to rescue USP9X substrates such as Mcl-1 from proteasomal degradation. In other aspects, by varying the concentration ratios of the compound and proteasome inhibitor for treating cells, it was possible to achieve controlled degradation of a USP9X substrate so the substrate could decline to a desirable level rather than degrade entirely.

USP9X [1] = biological target: T1, USP9X (Homo sapiens (Human), UniProt Q93008); experiment: USP9X enzyme activity assay, ubiquitin-rhodamine110 substrate
Protocol: The inhibition property of compound Compound 1A was evaluated in assays measuring the ability of USP9X to catalyze the hydrolysis of the amide bond between the C terminal carboxylate of ubiquitin and rhodamine110 of the fluorogenic substrate ubiquitin-rhodamine 110. To the wells of a 96 well reaction plate was added 12.5 μL USP9X solution (1.3 nM) in assay buffer (100 mM NaCl, 1 mM DTT, 0.1% bovine serum albumin, 0.05% Tween 20, 50 mM Tris, pH 7.5). 12.5 μL of Compound 1A in assay buffer (4×final concentration) was added to the wells containing the USP9X solution, and the solution was gently mixed by pipetting up and down several times. The plate was sealed and incubated at room temperature for 20 minutes.
Then 25 μL of the 1 μM substrate (ubiquitin-rhodaminel10) solution was added in assay buffer. The final substrate concentration was 0.5 μM. […] The slope for the rate of change of the fluorescence was determined and plotted vs the concentration of Compound 1A.
USP9X enzyme assays were set up in a 96 well plate to assess the abilities of Compound 3A and Compound 4A to inhibit the activity of USP9X, respectively. Ubiquitin-rhodamine110 was used as the substrate and ubiquitin aldehyde was included in the assay as a positive control.
Purified recombinant USPx9 (R&D Systems) in 50 mM Tris buffer pH 7.5, 1 mM DTT, 100 mM NaCl, 0.05% Tween 20 and 0/1% BSA is used at a concentration of 0.325 nM with 0.5 μM ubiquitin-rhodamine (R&D Systems).

USP9X [2] = biological target: T1, USP9X; experiment: Steady-state enzyme inhibition kinetics of USP9X; format: biochemical
From the text: The data were fit to a general model for enzyme inhibition (FIG. 1E) so the values of the parameters determined from the assays specified the mode of inhibition. For example, in the case of α=1 and β=0, it corresponded to purely non-competitive inhibition. For α=infinity and p=1, it corresponded to purely competitive inhibition. The values of all the parameters, KS, KI, kcat, α, and β could be determined from the steady state measurements. The enzyme reactions were set up as described in the Inhibiting the catalytic activity of USP9X section. The concentration of the substrate ubqiutin-rhodamine110 was varied. The initial rates of the reactions were determined at several concentrations of the inhibitor Compound 2A. In order to determine the values of the parameters KS and kcat, the reaction rates in the absence of the inhibitor Compound 2A, the initial reaction rate data were fit to the standard Michaelis-Menten equation v=Vmax [S]/(Km+[S]). The values of α and β could then be determined by fitting the initial rate data of the enzyme reaction at various concentrations of Compound 2A to a modified version of the Michaelis-Menten equation, designating both Vmax and KS apparent to distinguish the apparent values of the parameters determined from these plots to the true values for these parameters determined from the steady state kinetics in the absence of Compound 2A. The values of α and β could be determined from the variation of the slopes and intercepts of the series of double reciprocal plots of 1/v versus 1/[S] for each concentration of Compound 2A. […] The two values determined for KI were from the two different plots.
The two values for KI were determined by two different methods for determining this parameter from the kinetic data: 1 represented a value determined from the slope of the 1/A intercept vs 1/[I] plot; 2 represented a value determined from the y intercept of the 1/A slope vs 1/[I] plot. […] Only the values of the parameters varied for the compounds.

BT-549 = experiment: ONCOLINES Profiler proliferation; format: cell-based, human
From the text: (§1) The compounds were profiled on an ONCOLINES™ Profiler (Netherlands Translational Research Center) assayed with 66 cancer cell lines to determine if they were capable of inhibiting the proliferation of these cancer cells.
(§2) To further evaluate potency of the compounds, they were compared with the USP9X inhibitor WP 1130 by screening both the compounds and WP1130 on a 66-cancer cell line panel ONCOLINES™ Profiler.

66 cancer cell lines = experiment: ONCOLINES Profiler, whole panel; format: cell-based
From the text: The sensitivities of multiple cancer cells can be determined by screening the compounds on a cancer cell line panel, such as an ONCOLINES™ Profiler (Netherlands Translational Research Center) assayed with various tumor cell lines. For more information on ONCOLINES™ methods, see https://www.oncolines.com/oncolines/oncolines-explained-facts/. […] For example, Compound 7A inhibited the proliferation of 57 of the 66 cell lines being tested. […] “A tumor cell line sensitive to the compounds” is referred to that the proliferation of a tumor cell line, when contacted with the compounds, is inhibited by at least 50%, at least 60%, at least 70%, at least 80%, at least 85%, at least 90%, at least 91%, at least 92%, at least 93%, at least 94%, at least 95%, at least 96%, at least 97%, at least 98%, at least 99%, or 100%.
as §1, §2

PD-L1 = experiment: Western blot of PD-L1 in MIA PaCa-2 cells; format: cell-based; conditions: 24 hours
Protocol: MIA PaCa-2 cells expressing detectable levels of PD-L1 are treated with Compound 7A at various concentrations for 24 hours, and the ensuing level of PD-L1 are determined by Western blot to decrease by about 50% after the treatment.

[3] = read-out: IC50 for the inhibition of USP9X activity, ubiquitin-rhodamine110 substrate
[4] = read-out: USP9X IC50 nM, Table 2
[5] = from the slope of the 1/Δ intercept vs 1/[I] plot, read-out: KI, nM (1)
[6] = from the y intercept of the 1/Δ slope vs 1/[I] plot, read-out: KI, nM (2)

T1 sequence (Q93008 whole entry): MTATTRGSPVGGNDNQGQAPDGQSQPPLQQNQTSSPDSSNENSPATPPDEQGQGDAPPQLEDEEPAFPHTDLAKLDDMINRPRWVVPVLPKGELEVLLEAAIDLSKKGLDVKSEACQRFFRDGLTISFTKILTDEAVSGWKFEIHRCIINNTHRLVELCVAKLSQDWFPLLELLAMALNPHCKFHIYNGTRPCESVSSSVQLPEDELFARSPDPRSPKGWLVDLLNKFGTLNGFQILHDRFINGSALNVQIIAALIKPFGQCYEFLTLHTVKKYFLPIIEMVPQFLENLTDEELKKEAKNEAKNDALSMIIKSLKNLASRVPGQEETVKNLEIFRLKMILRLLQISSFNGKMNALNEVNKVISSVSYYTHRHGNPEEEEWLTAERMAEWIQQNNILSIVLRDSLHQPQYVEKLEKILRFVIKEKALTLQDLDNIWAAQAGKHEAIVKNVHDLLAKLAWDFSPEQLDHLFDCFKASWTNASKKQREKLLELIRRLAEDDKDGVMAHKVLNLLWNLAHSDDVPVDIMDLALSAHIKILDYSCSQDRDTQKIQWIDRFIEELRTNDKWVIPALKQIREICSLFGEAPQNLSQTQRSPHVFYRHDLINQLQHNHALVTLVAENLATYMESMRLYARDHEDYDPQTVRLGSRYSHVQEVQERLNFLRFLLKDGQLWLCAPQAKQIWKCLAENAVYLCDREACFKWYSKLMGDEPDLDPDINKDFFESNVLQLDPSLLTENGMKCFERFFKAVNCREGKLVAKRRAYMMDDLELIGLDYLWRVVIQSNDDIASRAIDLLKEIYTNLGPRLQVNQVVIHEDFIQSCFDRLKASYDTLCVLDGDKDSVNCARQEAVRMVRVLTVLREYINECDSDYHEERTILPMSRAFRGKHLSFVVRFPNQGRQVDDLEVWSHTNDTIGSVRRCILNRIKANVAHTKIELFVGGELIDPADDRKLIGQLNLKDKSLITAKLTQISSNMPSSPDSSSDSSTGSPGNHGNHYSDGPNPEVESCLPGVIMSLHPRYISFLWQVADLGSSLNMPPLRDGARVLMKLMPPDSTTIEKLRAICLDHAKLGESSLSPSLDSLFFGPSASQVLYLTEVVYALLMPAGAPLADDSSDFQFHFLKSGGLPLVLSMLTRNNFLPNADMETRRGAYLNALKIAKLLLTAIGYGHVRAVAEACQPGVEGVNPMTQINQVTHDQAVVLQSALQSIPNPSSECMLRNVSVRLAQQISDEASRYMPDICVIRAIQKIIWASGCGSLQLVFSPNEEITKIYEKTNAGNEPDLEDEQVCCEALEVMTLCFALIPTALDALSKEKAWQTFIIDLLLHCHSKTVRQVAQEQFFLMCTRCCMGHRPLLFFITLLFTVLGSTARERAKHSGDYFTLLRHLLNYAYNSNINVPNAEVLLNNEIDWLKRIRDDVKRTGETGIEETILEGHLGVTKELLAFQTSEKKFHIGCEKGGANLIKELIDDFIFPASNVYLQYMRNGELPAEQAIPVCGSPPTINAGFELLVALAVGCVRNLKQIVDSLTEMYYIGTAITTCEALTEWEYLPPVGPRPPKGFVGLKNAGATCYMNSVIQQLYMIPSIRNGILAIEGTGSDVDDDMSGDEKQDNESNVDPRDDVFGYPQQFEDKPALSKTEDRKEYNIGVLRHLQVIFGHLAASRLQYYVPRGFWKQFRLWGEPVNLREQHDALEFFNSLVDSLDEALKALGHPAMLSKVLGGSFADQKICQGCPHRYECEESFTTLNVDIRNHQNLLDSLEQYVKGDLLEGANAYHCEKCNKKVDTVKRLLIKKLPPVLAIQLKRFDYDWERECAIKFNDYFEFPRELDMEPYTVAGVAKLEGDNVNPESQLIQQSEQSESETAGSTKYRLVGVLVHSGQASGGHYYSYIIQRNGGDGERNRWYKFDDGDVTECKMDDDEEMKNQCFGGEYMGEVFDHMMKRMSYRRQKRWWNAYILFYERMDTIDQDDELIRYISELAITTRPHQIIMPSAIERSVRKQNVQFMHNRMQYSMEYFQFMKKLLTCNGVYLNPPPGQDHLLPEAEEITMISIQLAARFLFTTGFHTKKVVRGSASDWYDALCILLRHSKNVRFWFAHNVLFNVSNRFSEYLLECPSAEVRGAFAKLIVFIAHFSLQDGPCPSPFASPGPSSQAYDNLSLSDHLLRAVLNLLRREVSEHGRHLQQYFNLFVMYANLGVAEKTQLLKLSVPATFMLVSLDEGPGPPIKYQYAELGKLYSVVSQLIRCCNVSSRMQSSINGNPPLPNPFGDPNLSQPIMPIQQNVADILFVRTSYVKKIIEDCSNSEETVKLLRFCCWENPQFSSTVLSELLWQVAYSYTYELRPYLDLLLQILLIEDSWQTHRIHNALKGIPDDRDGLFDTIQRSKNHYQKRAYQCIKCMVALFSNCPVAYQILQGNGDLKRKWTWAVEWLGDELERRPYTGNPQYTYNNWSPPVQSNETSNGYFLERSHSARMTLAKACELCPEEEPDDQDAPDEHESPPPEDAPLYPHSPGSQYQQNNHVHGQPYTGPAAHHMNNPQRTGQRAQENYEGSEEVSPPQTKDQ

| IC50 (USP9X [1]; [3]) [nM] | IC50 (USP9X [1]; [4]) [nM] | KS (USP9X [2]) [µM] | VMAX RFU/min (USP9X [2]) [RFU/min] | α (USP9X [2]) | β (USP9X [2]) | Ki (USP9X [2]; [5]) [nM] | Ki (USP9X [2]; [6]) [nM] | IC50 Ratio WP1130/Compound 7A (BT-549; BT-549) | IC50 (BT-549; BT-549, breast ductal carcinoma) [nM] | IC50 (BT-549; Homo sapiens, BT-549, BT-549, breast ductal carcinoma) [nM] | Structure (SMILES) | ability to induce the degradation of Mcl-1 on addition of MG132 (Mcl-1; 10 μM MG132 one hour before compound) | reduction of Mcl-1 (Mcl-1; Compound 5A for 24 hrs (Lane 3)) | decrease of normalized level of Mcl-1 (Mcl-1; 24-hour treatment, concentration from 0 to 33 μm) [%] | cancer cell lines sensitive / proliferation inhibited, of 66 (66 cancer cell lines; 66 cell lines tested) | activity (66 cancer cell lines; in 3 of 66 cell lines, high Bcl-xL) | fold more potent than WP 1130 (66 cancer cell lines; in 12 of 66 cell lines) | decrease of level of PD-L1 (PD-L1) |
| --- | --- | --- | --- | --- | --- | --- | --- | --- | --- | --- | --- | --- | --- | --- | --- | --- | --- | --- |
| 30 | 30 | 1.2 | 335 | 2.3 | 0.78 | 6.7 | 24 | – | – | – | CN1CCOc2ccc(cc2)C(=O)NCc2cccc(c2)C(=O)N[C@@H](CC(C)(C)C)C(=O)Nc2ccc(cc2)CCN(C)C(=O)CC(C)(C)CC1=O [Compound 5A] | blocked | about 50% | – | – | – | – | – |
| 11 | 11 | 1.87 | 589 | 1.85 | 0.72 | 9.4 | 10.3 | 27.0 | 199 | 200 | CN1CCOc2ccc(cc2)C(=O)NCc2ccc(F)c(c2)C(=O)N[C@@H](CC(C)(C)C)C(=O)Nc2ccc(cc2)CCN(C)C(=O)CC(C)(C)CC1=O [Compound 7A] | – | – | 50 | 57 | inactive | about 4 fold | about 50% |
